In patent US9707267B2, “Beta-turn peptidomimetic cyclic compounds for treating dry eye” (Mimetogen Pharmaceuticals, Inc., priority 2008, dated 2017):

Assays:
cultured goblet cells = test: Goblet cell proliferation, Alamar Blue (Example 2); format: cell-based, rat; conditions: serum-free media
Experimental: The culturing of conjunctival goblet cells from explant cultures was as previously described in Shatos, M. et al., “Isolation, Characterization, and Propagation of Rat Conjunctival Goblet Cells In Vitro,” IOVS 42:1455-1464 (2001), the entire content of which is incorporated herein by reference. The tissue was finely minced and individual pieces were anchored onto scored 6-well cultures dishes in 0.5 mL of complete RPMI-1640 (supplemented with 10% FBS, 2 mM glutamine and 100 μg/mL penicillin-streptomycin) and incubated at 37° C. in a humidified 5% CO2-atmosphere. Explant cultures were refed every 2 days. Within a few days, goblet cells migrated from the pieces and began to proliferate. After approximately one week, the tissue plugs were removed and the goblet cells were allowed to grow to confluence. […]
Cell proliferation was measured using Alamar Blue from Biosource (Invitrogen Corporation, Carlsbad, Calif.) according to the manufacture's protocol. […] After 24 hours, 10% Alamar Blue was added for 6 hours and the absorbance was read at 570 and 600 nm on a Benchmark Plus (Biorad). The percentage of Alamar Blue reduction was calculated according to the manufacture's instructions. […]

p42/44 MAPK = test: Activation of p42/44 MAPK in goblet cells, Western blot (Example 2); format: cell-based, rat; conditions: 5 minutes, phospho-MAPK relative to actin
Experimental: The activation of p42/44 MAPK was examined using Western blot techniques. Goblet cells were serum starved in serum-free RPMI for 4-6 hrs prior to the addition of PMA (100 nM), NGF (1 or 10 nM), or MIM-D3 (10 or 50 μM) for 5 minutes at 37° C. After, cells were rinsed once in cold PBS, scraped in 100 μL of 1×SDS-PAGE sample buffer [62.5 mM Tris-HCl pH 6.8, 10% glycerol, 2% SDS, 5% β-mercaptoethanol, 0.02 mg/mL bromophenol blue] and sonicated for 20 minutes. The homogenates were centrifuged at 14,900 g for 15 min at 4° C. Proteins in a […] of the supernatant were separated by SDS-PAGE (8% acrylamide gels) and transferred to nitrocellulose membranes. The membranes were blocked for 2 hours in 5% non-fat dried milk in buffer containing 20 mM Tris-HCl, pH 8.0, 150 mM NaCl, and 0.01% Tween-20 (TBST). The blots were then probed with an antibody directed against the phosphorylated form of MAPK1/2 (Calbiochem, San Diego, Calif.) at 0.1 μg/mL in TBST containing 5% BSA overnight at 4° C., followed by a 1 hour incubation in HRP-conjugated secondary anti-mouse antibody (Sigma, St. Louis, Mo.) at room temperature in TBST containing 5% non-fat dried milk. Immunoreactive bands were visualized using the enhanced chemiluminescence method (Perkin Elmer, Waltham, Mass.). The blots were stripped at 55° C. for 30 minutes in stripping buffer [62.5 mM Tris-HCl pH 6.8, 2% SDS, 0.1M β-mercaptoethanol] followed by re-probing with an antibody directed against actin (1:5000 dilution, Sigma, St. Louis, Mo.) in TBST containing 5% non-fat dried milk and incubation in HRP-conjugated secondary anti-rabbit antibody. The immunoreactive bands were digitally scanned on an EPSON scanner and analyzed using NIH ImageJ v1.38x. The amount of phosphorylated MAPK in each sample was standardized to the amount of total actin protein in the sample.
To determine if compound D3 and NGF induced glycoconjugates secretion via activation of the MAPK pathway, cultured goblet cells from 3 independent rats were stimulated by 10 and 50 μM compound D3, 1 and 10 nM NGF or PMA (100 nM, the positive control) for 5 minutes and MAPK activity was measured by western blot analysis. A representative western blot from 3 independent rat goblet cell cultures is shown in FIG. 9, and the quantification is shown in FIG. 10. There was a statistically significant effect of treatment on MAPK activation (P<0.0001). Compound D3 increased MAPK activity above basal by 2.5±0.3 fold at 10 μM and 2.2±0.5 fold at 50 μM and NGF increased MAPK activity by 2.8±0.5 at 1 nM (P<0.05) and 1.7±0.2 at 10 nM.

[1] = tested on: Scopolamine Induced Rat Dry Eye Model; test: Scopolamine induced rat dry eye model, corneal staining (Example 5); format: in vivo; conditions: for Corneal Staining: score 0 to 4, ± SD
Experimental: Dry eye was induced using scopolamine hydrobromide (Sigma-Aldrich, St. Louis, Mo.), which was continuously and systemically delivered to the animals via an osmotic pump (2ML4 Alzet®; CedarLane, Burlington, Ontario) filled with scopolamine and implanted subcutaneously in the mid dorsal area between the scapulae. Scopolamine was delivered for a twenty-eight day period at 12.5 mg/day, which translated to 30.0±1.5 mg/kg via osmotic pump.
Treatments for G2-G6 continued daily for seventeen days (up to an including day twenty-one). Thereafter, treatments were terminated but the study continued for another week. During treatment, each animal was anesthetized in an isoflurane chamber. Once asleep, each animal received a 5 μL topical instillation of test article into the lower conjunctival sac of both eyes using a calibrated micropipette. If a clinical endpoint was also being tested, the test article was topically instilled at the end of the testing.
Immediately following TBUT assessment, the clinical signs of corneal dryness were evaluated by fluorescein staining of the cornea and was tested on day 13 (after 8 daily treatments), day 21 (after 16 daily treatments), and day 28 (after treatment was stopped for 7 days). A drop of a 0.2% sodium fluorescein solution made up in sterile saline was instilled in the upper conjunctival sac of the anaesthetized animal. The cornea was thereafter observed under blue light using a Portable Slit Lamp ophthalmoscope with blue cobalt filter (Reichert Ophthalmic Instruments, Depew, N.Y.) two to three minutes after fluorescein instillation. For each animal, the punctate fluorescein-stained area of the cornea was recorded in a masked fashion. The score of this test was graded from 0 to 4, where 0 is equal to no staining, 1 is less than 25% surface staining, 2 is 25-50% surface staining, 3 is 50-75% surface staining, and 4 is greater than 75% surface staining.

Compound | goblet cell proliferation (in words) (cultured goblet cells; concentrations up to 100 μM, by day four) | MAPK activity above basal (p42/44 MAPK; 10 μM) [fold] | MAPK activity above basal (p42/44 MAPK; 50 μM) [fold] | Corneal Staining ([1]; 0.4% topical 1× daily Days 5-21, Day 13) [Score] | Corneal Staining ([1]; 0.4% topical 1× daily Days 5-21, Day 21) [Score] | Corneal Staining ([1]; 0.4% topical 1× daily Days 5-21, Day 28 (7 days after treatment stopped)) [Score] | changes in corneal staining at Day 28 as compared to Day 13 (in words) ([1]; 1% dose vs untreated and saline control groups) | Corneal Staining ([1]; 1.0% topical 1× daily Days 5-21, Day 13) [Score] | Corneal Staining ([1]; 1.0% topical 1× daily Days 5-21, Day 21) [Score] | Corneal Staining ([1]; 1.0% topical 1× daily Days 5-21, Day 28 (7 days after treatment stopped)) [Score] | Corneal Staining ([1]; 2.5% topical 1× daily Days 5-21, Day 13) [Score] | Corneal Staining ([1]; 2.5% topical 1× daily Days 5-21, Day 21) [Score] | Corneal Staining ([1]; 2.5% topical 1× daily Days 5-21, Day 28 (7 days after treatment stopped)) [Score] | goblet cell proliferation (in words) (cultured goblet cells; NGF 10 pM to 10 nM, up to day four) | MAPK activity above basal (p42/44 MAPK; 1 nM) [fold] | MAPK activity above basal (p42/44 MAPK; 10 nM) [fold] | Corneal Staining ([1]; 0.00053% topical 1× daily Days 5-21, Day 13) [Score] | Corneal Staining ([1]; 0.00053% topical 1× daily Days 5-21, Day 21) [Score] | Corneal Staining ([1]; 0.00053% topical 1× daily Days 5-21, Day 28 (7 days after treatment stopped)) [Score]
NCCCC[C@@H]1NC(=O)[C@H](CCC(=O)O)NC(=O)c2cc([N+](=O)[O-])ccc2OCCC(C(=O)NCC(=O)O)NC1=O (stereo partly shown) [Compound D3] | did not stimulate goblet cell proliferation | 2.5±0.3 | 2.2±0.5 | 2.7 ± 0.4 | 2.1 ± 0.4 | 2.4 ± 0.7 | statistically significantly improved corneal staining | 2.8 ± 0.6 | 2.3 ± 0.6 | 1.3±0.3 | 2.1 ± 0.7 | 2.1 ± 1.0 | 2.6 ± 0.4 | – | – | – | – | – | –
NGF: nerve growth factor (recombinant human), positive control | – | – | – | – | – | – | – | – | – | – | – | – | – | did not increase proliferation | 2.8±0.5 | 1.7±0.2 | 2.6 ± 0.5 | 2.3 ± 0.6 | 2.2 ± 0.3
